Source: patent publication US10940139B2, “Compounds that interact with the Ras superfamily for the treatment of cancers, inflammatory diseases, rasopathies, and fibrotic disease” (Shy Therapeutics LLC, priority 2017, dated 2021)

These compounds were tested against KRas G12D/Q61H double mutant (Homo sapiens (Human), UniProt P01116, G12D/Q61H) (assay: Ras GTP binding domain inhibition assay (labeled GTP)). Details: 20 μM compound; read-out: % Inhibition at 20 μM KRas G12D Q61H.
Sequence of KRas G12D/Q61H double mutant (P01116-2 other isoform, or with tags, fused parts or gaps G12D/Q61H): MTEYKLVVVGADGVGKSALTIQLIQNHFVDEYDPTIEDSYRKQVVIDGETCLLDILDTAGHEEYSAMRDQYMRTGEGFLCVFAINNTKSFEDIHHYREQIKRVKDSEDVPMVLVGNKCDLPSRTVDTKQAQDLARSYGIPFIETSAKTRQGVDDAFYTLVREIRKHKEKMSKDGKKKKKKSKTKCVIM
Method in brief: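 Ni-plate capture of His-KRas (3-10 μg/ml, o/n, 4° C); Tris pH 7.5/MgCl2/DTT buffer, 1% DMSO. Cpd 20 μM or titration, 3 h RT. Cy3/Cy5-GTP 45 min RT, wash, fluorescence of bound GTP.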
`CS(=O)(=O)c1cccc(C(=O)N2CCCc3c(O)nc(-c4ccccn4)nc32)c1` [drawing 2647] was tested, and the inhibition at 20 µM was 51 to 75%.
With `COCCCC(=O)N1CCCc2c(O)nc(-c3ccccn3)nc21` [drawing 2648] the inhibition at 20 µM was 51 to 75%.
In the case of `O=C(c1cocn1)N1CCCc2c(O)nc(-c3ccccn3)nc21` [drawing 2649], the inhibition at 20 µM is reported as 25 to 50%.
For `CS(=O)(=O)CCCC(=O)N1CCCc2c(O)nc(-c3ccccn3)nc21` [drawing 2650], the inhibition at 20 µM was 51 to 75%.
`O=S(=O)(CCc1ccccc1)N1CCCc2c(O)nc(-c3ccccn3)nc21` [drawing 2651] gave an inhibition at 20 µM of 0%.
`O=S(=O)(c1ccccc1)N1CCCc2c(O)nc(-c3ccccn3)nc21` [drawing 2652] was tested, and the inhibition at 20 µM was 1 to 25%.
Compound `Nc1nc(O)c2scc(Br)c2n1` [drawing 2657] has an inhibition at 20 µM of 1 to 25%.

Same assay, conditions: 20 μM; read-out: KRas G12D Q61H % Inh.
Compound `NC(=O)c1ccc(OCC(=O)Nc2nnc(-c3ccccn3)[nH]2)cc1` [drawing 2538] has an inhibition at 20 µM of 51 to 75%.
Compound `COc1ccccc1-c1cc(C(=O)Nc2nnc(-c3ccccn3)[nH]2)no1` [drawing 2539] has an inhibition at 20 µM of 51 to 75%.
`O=C(Nc1nnc(-c2ccccn2)[nH]1)c1cccc(N2CCCS2(=O)=O)c1` [drawing 2540] gave an inhibition at 20 µM of 51 to 75%.
`CC(C)C(=O)Nc1nc(CC(=O)Nc2nnc(-c3ccccn3)[nH]2)cs1` [drawing 2541] was tested, and the inhibition at 20 µM was 51 to 75%.
Work on `CC(C)(C)c1nc(C(=O)Nc2nnc(-c3ccccn3)[nH]2)cs1` [drawing 2543] yielded an inhibition at 20 µM of 51 to 75%.
`O=C(Nc1nnc(-c2ccccn2)[nH]1)C1=NOC(c2ccccc2)C1` (stereo not shown) [drawing 2544] was tested, and the inhibition at 20 µM was 51 to 75%.
Work on `O=C(COc1ccccc1)Nc1nnc(-c2ccccn2)[nH]1` [drawing 2545] yielded an inhibition at 20 µM of 51 to 75%.
For `O=C(Nc1nnc(-c2ccccn2)[nH]1)c1csc(-c2ccco2)n1` [drawing 2546], the inhibition at 20 µM was 51 to 75%.
Compound `O=C(Nc1nnc(-c2ccccn2)[nH]1)C1Cc2cc(Cl)ccc2O1` (stereo not shown) [drawing 2548] has an inhibition at 20 µM of 51 to 75%.
In the case of `O=C(Cc1ccc2c(c1)OCO2)Nc1nnc(-c2ccccn2)[nH]1` [drawing 2549], the inhibition at 20 µM is reported as 51 to 75%.
In the case of `O=C(Nc1nnc(-c2ccccn2)[nH]1)c1ccc(Oc2cccnc2)cc1` [drawing 2550], the inhibition at 20 µM is reported as 51 to 75%.
Work on `O=C(Cc1ccc2c(c1)OCCO2)Nc1nnc(-c2ccccn2)[nH]1` [drawing 2551] yielded an inhibition at 20 µM of 51 to 75%.
`N#CCc1ccc(OCC(=O)Nc2nnc(-c3ccccn3)[nH]2)cc1` [drawing 2552] showed an inhibition at 20 µM of 51 to 75%.
Work on `O=C(Nc1nnc(-c2ccccn2)[nH]1)c1ccc(=O)n(CCOc2ccccc2)n1` [drawing 2553] yielded an inhibition at 20 µM of 51 to 75%.
`Cc1cccc(OCC(=O)Nc2nnc(-c3ccccn3)[nH]2)c1` [drawing 2555] showed an inhibition at 20 µM of 51 to 75%.
With `O=C(Nc1nnc(-c2ccccn2)[nH]1)C1CCN(C(=O)c2cccs2)CC1` [drawing 2556] the inhibition at 20 µM was 51 to 75%.
`COc1cn(-c2ccccc2)nc1C(=O)Nc1nnc(-c2ccccn2)[nH]1` [drawing 2557] was tested, and the inhibition at 20 µM was 76 to 100%.
Compound `CN(CC(=O)Nc1nnc(-c2ccccn2)[nH]1)S(=O)(=O)c1ccccc1` [drawing 2558] has an inhibition at 20 µM of 76 to 100%.
`O=C(Nc1nnc(-c2ccccn2)[nH]1)c1ccc(=O)[nH]n1` [drawing 2562] was tested, and the inhibition at 20 µM was 51 to 75%.
`COc1ccc(COCC(=O)Nc2nnc(-c3ccccn3)[nH]2)cc1` [drawing 2563] was tested, and the inhibition at 20 µM was 51 to 75%.
Compound `O=C(COCCOc1ccccc1)Nc1nnc(-c2ccccn2)[nH]1` [drawing 2564] has an inhibition at 20 µM of 76 to 100%.
Work on `O=C(Nc1nc(-c2ccccn2)cs1)C1COc2ccccc2O1` (stereo not shown) [drawing 2566] yielded an inhibition at 20 µM of 51 to 75%.
Work on `O=C(Cn1c(=O)cnc2ccccc21)Nc1nc(-c2ccccn2)cs1` [drawing 2569] yielded an inhibition at 20 µM of 51 to 75%.
For `O=C(Nc1nc(-c2ccccn2)cs1)c1ccc2nccnc2c1` [drawing 2570], the inhibition at 20 µM was 51 to 75%.
`O=C(Nc1nc(-c2ccccn2)cs1)c1ccc2[nH]cnc2c1` [drawing 2571] was tested, and the inhibition at 20 µM was 51 to 75%.
Work on `O=C(Cn1cnc2ccccc2c1=O)Nc1nc(-c2ccccn2)cs1` [drawing 2574] yielded an inhibition at 20 µM of 25 to 50%.
For `O=C(Nc1nc(-c2ccccn2)cs1)C1CC(=O)N(c2ccc3c(c2)OCCO3)C1` (stereo not shown) [drawing 2575], the inhibition at 20 µM was 51 to 75%.
For `O=C(Cc1cccc(F)c1)Nc1nc(-c2ccccn2)cs1` [drawing 2577], the inhibition at 20 µM was 25 to 50%.
With `O=C(Nc1nc(-c2ccccn2)cs1)c1ccc(F)cc1` [drawing 2579] the inhibition at 20 µM was 51 to 75%.
For `COc1ccc(-c2csc3[nH]c(-c4ccccn4)nc(=O)c23)cc1` [drawing 2582], the inhibition at 20 µM was 51 to 75%.
In the case of `O=c1nc(-c2ccccn2)[nH]c2scc(-c3cccs3)c12` [drawing 2583], the inhibition at 20 µM is reported as 51 to 75%.
Compound `CNC(=O)c1sc2[nH]c(-c3ccccn3)nc(=O)c2c1C` [drawing 2584] has an inhibition at 20 µM of 25 to 50%.
For `Cc1sc2[nH]c(-c3ccccn3)nc(=O)c2c1-c1ccccc1` [drawing 2586], the inhibition at 20 µM was 51 to 75%.
`O=c1nc(-c2ccccn2)[nH]c2sc(-c3ccccc3)cc12` [drawing 2588] showed an inhibition at 20 µM of 51 to 75%.
In the case of `CCN(CC)C(=O)c1sc2[nH]c(-c3ccccn3)nc(=O)c2c1C` [drawing 2589], the inhibition at 20 µM is reported as 51 to 75%.
`Cc1c(C(=O)N(C)C)sc2[nH]c(-c3ccccn3)nc(=O)c12` [drawing 2590] gave an inhibition at 20 µM of 25 to 50%.
Work on `O=c1nc(-c2ccccn2)[nH]c2c1sc1ccccc12` [drawing 2592] yielded an inhibition at 20 µM of 51 to 75%.
`COc1ccc(NC(=O)CCc2c(C)nc(-c3ccccn3)nc2O)cn1` [drawing 2594] was tested, and the inhibition at 20 µM was 51 to 75%.
For `Cc1nc(-c2ccccn2)nc(O)c1CCC(=O)NCCc1cccs1` [drawing 2595], the inhibition at 20 µM was 25 to 50%.
With `Cc1nc(-c2ccccn2)nc(O)c1CCC(=O)Nc1cc(F)ccc1F` [drawing 2596] the inhibition at 20 µM was 51 to 75%.
`Cc1nc(-c2ccccn2)nc(O)c1CCC(=O)NC1CCc2ccccc21` (stereo not shown) [drawing 2597] gave an inhibition at 20 µM of 25 to 50%.
`Cc1nc(-c2ccccn2)nc(O)c1CCC(=O)Nc1ccc(C(C)C)cc1` [drawing 2598] showed an inhibition at 20 µM of 51 to 75%.
`Cc1nc(-c2ccccn2)nc(O)c1CCC(=O)NCC1COc2ccccc2O1` (stereo not shown) [drawing 2599] gave an inhibition at 20 µM of 25 to 50%.
With `COC(=O)c1cc(NC(=O)CCc2c(C)nc(-c3ccccn3)nc2O)ccc1Cl` [drawing 2600] the inhibition at 20 µM was 51 to 75%.
With `Cc1nc(-c2ccccn2)nc(O)c1CCC(=O)Nc1cccc(OCC(=O)N2CCCC2)c1` [drawing 2601] the inhibition at 20 µM was 25 to 50%.
`CCN(CC)S(=O)(=O)c1cc(C)c(C)c(NC(=O)CCc2c(C)nc(-c3ccccn3)nc2O)c1` [drawing 2602] gave an inhibition at 20 µM of 51 to 75%.
For `CCc1cc(NNC(=O)c2ccc(C#N)cc2)nc(-c2ccccn2)n1` [drawing 2605], the inhibition at 20 µM was 51 to 75%.
`COCCCn1ccc(Nc2cc(C)nc(-c3ccccn3)n2)n1` [drawing 2606] showed an inhibition at 20 µM of 51 to 75%.
`Cc1ccc(CN(Cc2ccco2)C(=O)c2oc3ccccc3c2C)cc1` [drawing 2614] gave an inhibition at 20 µM of 51 to 75%.
With `Cc1ccc(O)c(CN(C)Cc2nccn2Cc2ccccc2)n1` [drawing 2615] the inhibition at 20 µM was 51 to 75%.
`FC(F)(F)Sc1ccc(Cc2ccc(SC(F)(F)F)cc2)cc1` [drawing 2616] showed an inhibition at 20 µM of 51 to 75%.
`CCCCSc1nc(-c2cccs2)c(C(=O)C(F)(F)F)cc1C#N` [drawing 2618] was tested, and the inhibition at 20 µM was 51 to 75%.
With `CCC(C)(C)c1ccc(OCCCC(=O)NC(C(=O)OC)C(C)C)c(C(C)(C)CC)c1` (stereo not shown) [drawing 2619] the inhibition at 20 µM was 25 to 50%.
`Oc1ccc(C2(c3cccc(Cl)c3)CCCC2)cc1` [drawing 2620] gave an inhibition at 20 µM of 25 to 50%.
Work on `Cc1ccc(-c2ccc(Oc3ccc(C(F)(F)F)cn3)c(C)c2)cc1` [drawing 2621] yielded an inhibition at 20 µM of 51 to 75%.
`CCOc1cc(C(=O)Oc2c(C)ccc(C)c2C)cc(OCC)c1OCC` [drawing 2622] was tested, and the inhibition at 20 µM was 51 to 75%.
`COC(=O)c1ccc(C(=O)NCC2(c3ccccc3OC)CCCC2)nc1` [drawing 2623] showed an inhibition at 20 µM of 25 to 50%.
`CCOc1cc(S(=O)(=O)N(Cc2ccccc2)Cc2ccccc2)c(OCC)cc1C` [drawing 2624] showed an inhibition at 20 µM of 25 to 50%.
With `COc1ccc(CN(CC[S+]([O-])c2cc(Cl)ccc2Cl)C2CC2)cc1` (stereo not shown) [drawing 2625] the inhibition at 20 µM was 25 to 50%.
For `CCCOc1ccc2ccccc2c1CN(C)S(=O)(=O)N1CC(C)OC(C)C1` (stereo not shown) [drawing 2626], the inhibition at 20 µM was 25 to 50%.
`O=S(=O)(Oc1cc(C(F)(F)F)cc(C(F)(F)F)c1)N1CCc2ccccc2C1` [drawing 2627] was tested, and the inhibition at 20 µM was 51 to 75%.
Compound `COC(=O)C(C)CN(Cc1cc(Br)ccc1[N+](=O)[O-])C1CC1` (stereo not shown) [drawing 2629] has an inhibition at 20 µM of 25 to 50%.
`CC(C1CC1)N(CC(F)(F)F)C(=O)Cc1ccc(-c2ccccc2)cc1` (stereo not shown) [drawing 2630] showed an inhibition at 20 µM of 51 to 75%.
`COC(=O)C(C)CN(Cc1ccccc1)c1nc(C(F)(F)F)ccc1C#N` (stereo not shown) [drawing 2631] showed an inhibition at 20 µM of 25 to 50%.
Work on `N#CC1(c2ccc(C(=O)N3CCCC3CO)cc2)CC1` (stereo not shown) [drawing 2632] yielded an inhibition at 20 µM of 76 to 100%.
Work on `CCN(CC)S(=O)(=O)c1ccc(NCCOC)c(C(=O)NCCSCc2ccc(C)cc2)c1` [drawing 2633] yielded an inhibition at 20 µM of 25 to 50%.
`CSc1nc(C2CC2)cc(C(=O)NCCc2ccc(S(=O)(=O)NC(=O)c3cc(C4CC4)nc(SC)c3C#N)cc2)c1C#N` [drawing 2634] gave an inhibition at 20 µM of 51 to 75%.
With `CC(C)C1=C(O)C2(CC2c2ccc(-c3ccccc3)cc2)C(C)CC1` (stereo not shown) [drawing 2635] the inhibition at 20 µM was 25 to 50%.
In the case of `Cc1cccc(C)c1OCCOC(=O)c1ccccc1SCCOc1c(C)cccc1C` [drawing 2636], the inhibition at 20 µM is reported as 51 to 75%.
With `Oc1nc(-c2ccccn2)nc2c1CCCN2` [drawing 2637] the inhibition at 20 µM was 25 to 50%.
In the case of `O=C(COc1ccccc1)N1CCCc2c(O)nc(-c3ccccn3)nc21` [drawing 2638], the inhibition at 20 µM is reported as 76 to 100%.
Compound `COc1ccc(COCC(=O)N2CCCc3c(O)nc(-c4ccccn4)nc32)cc1` [drawing 2639] has an inhibition at 20 µM of 76 to 100%.
For `CN(CC(=O)N1CCCc2c(O)nc(-c3ccccn3)nc21)S(=O)(=O)c1ccccc1` [drawing 2641], the inhibition at 20 µM was 1 to 25%.
Compound `CS(=O)(=O)N1CCCc2cc(C(=O)N3CCCc4c(O)nc(-c5ccccn5)nc43)ccc21` [drawing 2645] has an inhibition at 20 µM of 25 to 50%.

Same assay, conditions: read-out: KRas G12D Q61H IC50
`Cc1cccc(OCC(=O)Nc2nnc(-c3ccccn3)[nH]2)c1` [drawing 2555] gave an IC50 of 5 to 10 µM.
`O=c1nc(-c2ccccn2)[nH]c2c1sc1ccccc12` [drawing 2592] was tested, and the IC50 was 11 to 30 µM.
`COc1ccc(COCC(=O)N2CCCc3c(O)nc(-c4ccccn4)nc32)cc1` [drawing 2639] gave an IC50 of under 5 µM.

Same assay, conditions: serial dilution; read-out: KRas G12D Q61H (classes E-H, IC50)
`CS(=O)(=O)c1cccc(C(=O)N2CCCc3c(O)nc(-c4ccccn4)nc32)c1` [drawing 2647] showed an IC50 of 5 to 10 µM.
